Assay results taken from US9249129B2, “Morpholino substituted urea derivatives as mTOR inhibitors” (CELLZOME LIMITED, priority 2010, dated 2016).

How the values were obtained:
Assay in all cases: kinobeads assay with mass spectrometry detection of kinases (kinase selectivity profile)
Format in all cases: binding
kinases (kinome) [1] = target: T1, kinases (kinome) (Homo sapiens, UniProt P27448); conditions: MARK3 (CAMK), IPI00183118
T1 construct: determined in kinobeads assays with mass spectrometry detection of kinases as described previously; endogenous in cells; host or cells: cell lysate
From the text: (§1) The protein kinase complement of the human genome (the kinome) was described previously (Manning et al., 2002. Science 298(5600):1912-1934). Sequence accession numbers are defined by the International Protein Index (IPI) (Kersey et al., 2004. Proteomics 4(7):1985-1988).

kinases (kinome) [2] = target: T2, kinases (kinome) (Homo sapiens, UniProt P45983); conditions: JNK1 (CMGC), IPI00220306
T2 construct: determined in kinobeads assays with mass spectrometry detection of kinases as described previously; endogenous in cells; host or cells: cell lysate
From the text: as §1

kinases (kinome) [3] = target: T3, kinases (kinome) (Homo sapiens, UniProt P28482); conditions: Erk2 (CMGC), IPI00003479
T3 construct: determined in kinobeads assays with mass spectrometry detection of kinases as described previously; endogenous in cells; host or cells: cell lysate
T3 sequence (P28482 whole entry): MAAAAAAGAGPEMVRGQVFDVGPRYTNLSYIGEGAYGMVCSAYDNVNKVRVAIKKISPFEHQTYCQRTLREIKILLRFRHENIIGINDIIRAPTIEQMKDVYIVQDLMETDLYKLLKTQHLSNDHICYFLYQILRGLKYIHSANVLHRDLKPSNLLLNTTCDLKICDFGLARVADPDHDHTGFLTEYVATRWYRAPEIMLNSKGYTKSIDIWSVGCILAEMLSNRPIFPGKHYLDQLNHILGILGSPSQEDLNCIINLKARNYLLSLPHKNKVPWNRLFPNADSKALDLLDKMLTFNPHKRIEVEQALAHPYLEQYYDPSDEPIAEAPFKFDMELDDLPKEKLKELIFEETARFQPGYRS
From the text: as §1

kinases (kinome) [4] = target: T4, kinases (kinome) (Homo sapiens, UniProt Q6PHR2); conditions: ULK3 (Other), IPI00910978
T4 construct: determined in kinobeads assays with mass spectrometry detection of kinases as described previously; endogenous in cells; host or cells: cell lysate
T4 sequence (Q6PHR2 1-472): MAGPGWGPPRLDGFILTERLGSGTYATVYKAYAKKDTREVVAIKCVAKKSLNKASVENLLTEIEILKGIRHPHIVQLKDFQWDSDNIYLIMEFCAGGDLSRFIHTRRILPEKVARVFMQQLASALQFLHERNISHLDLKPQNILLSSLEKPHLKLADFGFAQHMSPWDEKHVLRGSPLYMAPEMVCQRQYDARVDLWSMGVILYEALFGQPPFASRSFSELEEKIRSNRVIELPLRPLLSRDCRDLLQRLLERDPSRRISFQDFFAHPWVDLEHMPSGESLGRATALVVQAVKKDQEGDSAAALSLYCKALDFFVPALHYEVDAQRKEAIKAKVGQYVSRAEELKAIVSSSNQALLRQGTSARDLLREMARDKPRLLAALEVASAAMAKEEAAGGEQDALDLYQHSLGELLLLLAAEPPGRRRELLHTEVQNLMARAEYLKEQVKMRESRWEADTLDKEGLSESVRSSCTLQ
From the text: as §1

kinases (kinome) [5] = target: T5, kinases (kinome) (Homo sapiens, UniProt P42684); conditions: ARG (TK), IPI00329488
T5 construct: determined in kinobeads assays with mass spectrometry detection of kinases as described previously; endogenous in cells; host or cells: cell lysate
From the text: as §1

kinases (kinome) [6] = target: T6, kinases (kinome) (Homo sapiens, UniProt Q9Y2U5); conditions: MAP3K2 (STE), IPI00513803
T6 construct: determined in kinobeads assays with mass spectrometry detection of kinases as described previously; endogenous in cells; host or cells: cell lysate
T6 sequence (Q9Y2U5 1-619): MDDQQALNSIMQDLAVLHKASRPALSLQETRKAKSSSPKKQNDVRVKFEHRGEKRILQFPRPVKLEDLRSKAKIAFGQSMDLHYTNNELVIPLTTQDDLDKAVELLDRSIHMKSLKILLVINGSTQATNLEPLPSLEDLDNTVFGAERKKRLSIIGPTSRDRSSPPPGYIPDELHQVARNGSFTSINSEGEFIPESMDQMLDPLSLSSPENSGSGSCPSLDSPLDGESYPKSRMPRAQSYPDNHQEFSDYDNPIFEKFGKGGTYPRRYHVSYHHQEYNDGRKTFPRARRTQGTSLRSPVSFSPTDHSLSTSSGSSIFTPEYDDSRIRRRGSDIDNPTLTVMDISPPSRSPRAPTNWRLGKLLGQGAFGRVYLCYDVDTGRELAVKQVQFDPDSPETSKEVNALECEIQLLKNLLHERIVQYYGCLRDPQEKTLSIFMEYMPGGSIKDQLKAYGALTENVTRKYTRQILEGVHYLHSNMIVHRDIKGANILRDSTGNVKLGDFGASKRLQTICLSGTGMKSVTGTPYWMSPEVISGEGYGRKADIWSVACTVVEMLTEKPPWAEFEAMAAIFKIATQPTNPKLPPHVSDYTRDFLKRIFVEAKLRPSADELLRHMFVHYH
From the text: as §1

kinases (kinome) [7] = target: T7, kinases (kinome) (Homo sapiens, UniProt Q9BQI3); conditions: HRI (Other), IPI00328149
T7 construct: determined in kinobeads assays with mass spectrometry detection of kinases as described previously; endogenous in cells; host or cells: cell lysate
From the text: as §1

kinases (kinome) [8] = target: T8, kinases (kinome) (Homo sapiens, UniProt Q9Y6R4); conditions: MAP3K4 (STE), IPI00386260
T8 construct: determined in kinobeads assays with mass spectrometry detection of kinases as described previously; endogenous in cells; host or cells: cell lysate
From the text: as §1

kinases (kinome) [9] = target: T9, kinases (kinome) (Homo sapiens, UniProt Q04759); conditions: PKCt (AGC), IPI00029196
T9 construct: determined in kinobeads assays with mass spectrometry detection of kinases as described previously; endogenous in cells; host or cells: cell lysate
T9 sequence (Q04759 whole entry): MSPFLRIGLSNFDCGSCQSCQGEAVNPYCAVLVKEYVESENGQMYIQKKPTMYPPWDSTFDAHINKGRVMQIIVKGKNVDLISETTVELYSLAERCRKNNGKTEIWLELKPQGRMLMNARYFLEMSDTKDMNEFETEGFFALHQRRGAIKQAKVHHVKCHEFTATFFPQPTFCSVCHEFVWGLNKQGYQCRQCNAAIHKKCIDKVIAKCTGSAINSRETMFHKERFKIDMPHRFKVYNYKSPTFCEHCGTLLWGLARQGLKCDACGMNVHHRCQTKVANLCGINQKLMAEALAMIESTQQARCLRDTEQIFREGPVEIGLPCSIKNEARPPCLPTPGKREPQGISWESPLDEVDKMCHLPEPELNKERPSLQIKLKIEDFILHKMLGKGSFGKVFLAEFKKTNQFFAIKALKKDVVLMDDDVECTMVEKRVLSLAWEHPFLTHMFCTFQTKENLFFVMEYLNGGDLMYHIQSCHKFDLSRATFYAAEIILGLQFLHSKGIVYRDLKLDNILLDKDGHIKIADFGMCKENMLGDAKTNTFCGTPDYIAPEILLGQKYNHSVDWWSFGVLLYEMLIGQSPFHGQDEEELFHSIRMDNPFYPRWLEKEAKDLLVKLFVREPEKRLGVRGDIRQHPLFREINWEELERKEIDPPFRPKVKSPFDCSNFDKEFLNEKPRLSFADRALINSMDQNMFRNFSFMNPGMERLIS
From the text: as §1

kinases (kinome) [10] = target: T10, kinases (kinome) (Homo sapiens, UniProt Q05397); conditions: FAK (TK), IPI00413961
T10 construct: determined in kinobeads assays with mass spectrometry detection of kinases as described previously; endogenous in cells; host or cells: cell lysate
T10 sequence (Q05397 whole entry): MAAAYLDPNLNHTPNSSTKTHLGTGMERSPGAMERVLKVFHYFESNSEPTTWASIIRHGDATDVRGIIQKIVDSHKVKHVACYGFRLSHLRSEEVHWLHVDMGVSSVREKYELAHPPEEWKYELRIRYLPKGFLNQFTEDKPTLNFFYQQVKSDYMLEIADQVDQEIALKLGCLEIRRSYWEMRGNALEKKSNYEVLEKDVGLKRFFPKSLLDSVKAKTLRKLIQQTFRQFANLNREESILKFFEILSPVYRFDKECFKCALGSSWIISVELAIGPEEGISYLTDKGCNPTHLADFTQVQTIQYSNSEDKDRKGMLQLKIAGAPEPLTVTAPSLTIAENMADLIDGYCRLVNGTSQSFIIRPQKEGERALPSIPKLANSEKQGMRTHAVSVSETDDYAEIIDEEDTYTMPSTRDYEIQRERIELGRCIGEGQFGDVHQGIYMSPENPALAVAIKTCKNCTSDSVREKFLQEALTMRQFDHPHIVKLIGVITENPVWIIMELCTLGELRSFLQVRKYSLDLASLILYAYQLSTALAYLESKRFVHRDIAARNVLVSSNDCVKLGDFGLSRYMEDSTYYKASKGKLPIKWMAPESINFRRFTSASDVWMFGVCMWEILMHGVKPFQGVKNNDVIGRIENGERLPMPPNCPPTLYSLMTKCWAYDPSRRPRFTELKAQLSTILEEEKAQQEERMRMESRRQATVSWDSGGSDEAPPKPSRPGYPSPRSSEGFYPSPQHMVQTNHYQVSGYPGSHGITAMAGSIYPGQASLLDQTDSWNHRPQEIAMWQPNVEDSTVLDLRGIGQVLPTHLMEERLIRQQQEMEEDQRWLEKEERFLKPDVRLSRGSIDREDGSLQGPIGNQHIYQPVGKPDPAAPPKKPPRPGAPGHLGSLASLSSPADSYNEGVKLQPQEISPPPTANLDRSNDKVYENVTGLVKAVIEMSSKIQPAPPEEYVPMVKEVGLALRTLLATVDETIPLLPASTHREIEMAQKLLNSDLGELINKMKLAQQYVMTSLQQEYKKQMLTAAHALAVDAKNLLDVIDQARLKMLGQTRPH
From the text: as §1

kinases (kinome) [11] = target: T11, kinases (kinome) (Homo sapiens, UniProt P09769); conditions: FGR (TK), IPI00016871
T11 construct: determined in kinobeads assays with mass spectrometry detection of kinases as described previously; endogenous in cells; host or cells: cell lysate
T11 sequence (P09769 whole entry): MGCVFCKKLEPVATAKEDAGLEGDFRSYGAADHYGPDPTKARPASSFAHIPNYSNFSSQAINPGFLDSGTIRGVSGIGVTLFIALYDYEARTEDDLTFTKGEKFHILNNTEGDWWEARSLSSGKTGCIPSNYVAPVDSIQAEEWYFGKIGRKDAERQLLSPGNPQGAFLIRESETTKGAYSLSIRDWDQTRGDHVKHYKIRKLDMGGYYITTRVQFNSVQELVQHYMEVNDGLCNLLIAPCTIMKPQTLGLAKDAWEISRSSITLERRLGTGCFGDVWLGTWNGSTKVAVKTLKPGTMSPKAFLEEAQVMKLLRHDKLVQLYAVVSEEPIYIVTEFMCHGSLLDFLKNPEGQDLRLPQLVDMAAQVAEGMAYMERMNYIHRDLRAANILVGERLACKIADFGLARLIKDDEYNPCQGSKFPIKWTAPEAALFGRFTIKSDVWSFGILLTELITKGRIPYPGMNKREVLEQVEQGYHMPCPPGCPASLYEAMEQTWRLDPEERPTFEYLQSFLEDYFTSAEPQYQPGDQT
From the text: as §1

kinases (kinome) [12] = target: T12, kinases (kinome) (Homo sapiens, UniProt Q9Y2K2); conditions: QSK (CAMK), IPI00657720
T12 construct: determined in kinobeads assays with mass spectrometry detection of kinases as described previously; endogenous in cells; host or cells: cell lysate
From the text: as §1

kinases (kinome) [13] = target: T13, kinases (kinome) (Homo sapiens, UniProt P42336); conditions: PIK3Ca (Lipid Kinase), IPI00031386
T13 construct: determined in kinobeads assays with mass spectrometry detection of kinases as described previously; endogenous in cells; host or cells: cell lysate
T13 sequence (P42336 whole entry): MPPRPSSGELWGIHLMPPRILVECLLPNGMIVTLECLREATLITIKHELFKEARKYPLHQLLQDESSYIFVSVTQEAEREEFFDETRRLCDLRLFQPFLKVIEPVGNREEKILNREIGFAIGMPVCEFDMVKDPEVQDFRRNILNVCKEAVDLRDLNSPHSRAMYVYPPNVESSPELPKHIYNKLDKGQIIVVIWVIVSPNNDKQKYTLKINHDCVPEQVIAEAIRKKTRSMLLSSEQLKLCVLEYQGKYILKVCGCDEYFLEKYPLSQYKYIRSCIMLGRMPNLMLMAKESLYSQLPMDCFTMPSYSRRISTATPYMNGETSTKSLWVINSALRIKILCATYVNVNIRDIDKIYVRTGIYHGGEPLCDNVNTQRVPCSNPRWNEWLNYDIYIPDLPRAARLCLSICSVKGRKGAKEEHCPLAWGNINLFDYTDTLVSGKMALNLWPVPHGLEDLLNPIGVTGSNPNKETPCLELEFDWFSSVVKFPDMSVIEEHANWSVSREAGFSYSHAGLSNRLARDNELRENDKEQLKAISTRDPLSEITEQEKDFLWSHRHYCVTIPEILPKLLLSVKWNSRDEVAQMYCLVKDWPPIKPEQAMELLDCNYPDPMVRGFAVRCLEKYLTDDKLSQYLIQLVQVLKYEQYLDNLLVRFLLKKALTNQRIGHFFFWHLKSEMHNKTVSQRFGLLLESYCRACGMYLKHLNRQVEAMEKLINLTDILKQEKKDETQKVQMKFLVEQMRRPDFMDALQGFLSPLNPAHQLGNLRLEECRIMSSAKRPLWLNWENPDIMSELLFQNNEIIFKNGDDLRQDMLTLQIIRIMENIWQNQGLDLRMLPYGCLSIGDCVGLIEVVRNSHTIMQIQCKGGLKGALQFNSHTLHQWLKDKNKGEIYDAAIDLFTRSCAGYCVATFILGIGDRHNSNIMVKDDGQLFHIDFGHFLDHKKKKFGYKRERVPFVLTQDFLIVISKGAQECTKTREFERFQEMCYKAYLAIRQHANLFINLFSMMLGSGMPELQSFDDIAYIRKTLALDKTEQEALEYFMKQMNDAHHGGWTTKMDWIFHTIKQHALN
From the text: as §1

kinases (kinome) [14] = target: T14, kinases (kinome) (Homo sapiens, UniProt P78527); conditions: DNAPK (Atypical), IPI00296337
T14 construct: determined in kinobeads assays with mass spectrometry detection of kinases as described previously; endogenous in cells; host or cells: cell lysate
From the text: as §1

kinases (kinome) [15] = target: T15, kinases (kinome) (Homo sapiens, UniProt Q9NYL2); conditions: ZAK (TKL), IPI00329638
T15 construct: determined in kinobeads assays with mass spectrometry detection of kinases as described previously; endogenous in cells; host or cells: cell lysate
T15 sequence (Q9NYL2 whole entry): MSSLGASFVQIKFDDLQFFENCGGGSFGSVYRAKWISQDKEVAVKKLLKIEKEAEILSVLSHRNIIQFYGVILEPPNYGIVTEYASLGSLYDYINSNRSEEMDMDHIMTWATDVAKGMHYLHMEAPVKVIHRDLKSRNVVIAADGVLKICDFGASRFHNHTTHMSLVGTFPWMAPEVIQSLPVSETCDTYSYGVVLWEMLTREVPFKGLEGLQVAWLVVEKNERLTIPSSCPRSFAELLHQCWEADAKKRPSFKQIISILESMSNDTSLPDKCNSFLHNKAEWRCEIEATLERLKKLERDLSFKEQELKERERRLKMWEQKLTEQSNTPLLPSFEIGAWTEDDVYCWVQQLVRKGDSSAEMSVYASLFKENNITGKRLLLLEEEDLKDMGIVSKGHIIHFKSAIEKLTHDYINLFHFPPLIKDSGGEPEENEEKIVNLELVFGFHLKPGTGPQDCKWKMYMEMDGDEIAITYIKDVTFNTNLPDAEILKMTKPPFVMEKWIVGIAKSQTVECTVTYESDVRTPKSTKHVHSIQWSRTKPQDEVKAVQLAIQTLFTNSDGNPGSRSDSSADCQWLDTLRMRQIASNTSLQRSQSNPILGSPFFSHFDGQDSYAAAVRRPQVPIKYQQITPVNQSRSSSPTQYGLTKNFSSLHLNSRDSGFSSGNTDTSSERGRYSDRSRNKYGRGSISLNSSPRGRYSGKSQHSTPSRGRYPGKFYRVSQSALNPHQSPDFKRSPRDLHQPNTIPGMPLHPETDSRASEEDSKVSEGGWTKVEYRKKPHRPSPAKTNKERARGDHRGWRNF
From the text: as §1

kinases (kinome) [16] = target: T16, kinases (kinome) (Homo sapiens, UniProt Q08345); conditions: DDR1 (TK), IPI00657861
T16 construct: determined in kinobeads assays with mass spectrometry detection of kinases as described previously; endogenous in cells; host or cells: cell lysate
From the text: as §1

kinases (kinome) [17] = target: T17, kinases (kinome) (Homo sapiens, UniProt Q15059); conditions: BRD3 (Atypical), IPI00014266
T17 construct: determined in kinobeads assays with mass spectrometry detection of kinases as described previously; endogenous in cells; host or cells: cell lysate
From the text: as §1

kinases (kinome) [18] = target: kinases (kinome) (Homo sapiens, UniProt Q15418); conditions: RSK3 (AGC), IPI00477982
From the text: as §1

kinases (kinome) [19] = target: T18, kinases (kinome) (Homo sapiens, UniProt P50750); conditions: CDK9 (CMGC), IPI00552413
T18 construct: determined in kinobeads assays with mass spectrometry detection of kinases as described previously; endogenous in cells; host or cells: cell lysate
T18 sequence (P50750 whole entry): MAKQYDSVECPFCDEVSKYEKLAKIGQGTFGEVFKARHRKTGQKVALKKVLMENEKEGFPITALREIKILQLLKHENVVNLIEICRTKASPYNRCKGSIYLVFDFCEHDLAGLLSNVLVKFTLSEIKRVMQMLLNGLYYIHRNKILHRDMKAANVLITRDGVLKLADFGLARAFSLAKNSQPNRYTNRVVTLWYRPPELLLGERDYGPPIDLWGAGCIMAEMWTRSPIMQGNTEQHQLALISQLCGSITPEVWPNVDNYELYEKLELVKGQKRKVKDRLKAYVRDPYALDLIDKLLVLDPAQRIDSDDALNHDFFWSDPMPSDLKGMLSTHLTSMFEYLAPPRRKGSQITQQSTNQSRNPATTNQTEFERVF
From the text: as §1

kinases (kinome) [20] = target: T19, kinases (kinome) (Homo sapiens, UniProt Q9NSY1); conditions: BIKE (Other), IPI00337426
T19 construct: determined in kinobeads assays with mass spectrometry detection of kinases as described previously; endogenous in cells; host or cells: cell lysate
From the text: as §1

kinases (kinome) [21] = target: T20, kinases (kinome) (Homo sapiens, UniProt P23458); conditions: JAK1 (TK), IPI00784013
T20 construct: determined in kinobeads assays with mass spectrometry detection of kinases as described previously; endogenous in cells; host or cells: cell lysate
From the text: as §1

Measured: IC50

C[C@H]1COCCN1c1nc(-c2ccc(NC(=O)NC3CC3)cc2)cc(-c2cccnc2S(C)(=O)=O)n1 [Example 46, (S)-1-cyclopropyl-3-(4-(2-(3-methylmorpholino)-6-(2-(methylsulfonyl)pyridin-3-yl)pyrimidin-4-yl)phenyl)urea]
> 10 µM: all assays above

C[C@H]1COCCN1c1nc(-c2ccc(NC(=O)NC3CC3)cc2)cc(-c2ccccc2S(C)(=O)=O)n1 [Example 4, (S)-1-cyclopropyl-3-(4-(2-(3-methylmorpholino)-6-(2-(methylsulfonyl)phenyl)pyrimidin-4-yl)phenyl)urea]
> 10 µM: all assays above

C[C@H]1COCCN1c1nc(-c2ccc(NC(=O)N[C@H]3CCC[C@@H]3O)cc2)cc(-c2cc(F)ccc2S(C)(=O)=O)n1 [Example 76, 1-(4-(6-(5-fluoro-2-(methylsulfonyl)phenyl)-2-((S)-3-methylmorpholino)pyrimidin-4-yl)phenyl)-3-((1S,2S)-2-hydroxycyclopentyl)urea]
> 10 µM: all assays above

CCNC(=O)Nc1ccc(-c2cc(-c3ccccc3C#N)nc(N3CCOC[C@@H]3C)n2)cc1 [Example 8, (S)-1-(4-(6-(2-cyanophenyl)-2-(3-methylmorpholino)pyrimidin-4-yl)phenyl)-3-ethylurea]
not listed: kinases (kinome) [16]
> 10 µM: all other assays above

C[C@H]1COCCN1c1cc(-c2ccccc2S(C)(=O)=O)nc(-c2ccc(NC(=O)NC3CC3)cc2)n1 [Example 6, (S)-1-cyclopropyl-3-(4-(4-(3-methylmorpholino)-6-(2-(methylsulfonyl)phenyl)pyrimidin-2-yl)phenyl)urea]
not listed: kinases (kinome) [7]
> 10 µM: all other assays above
